The EC50 is the midpoint of the concentration-response curve.

Molecules are shown by their SMILES.

For the test, the system named is N. fowleri strain Nf69 (ATCC 30215) trophozoites. Nature of the test: Determination of EC50 values against Naegleria fowleri (growth inhibition, CellTiter Glo, 48 h). The conditions noted are these: ATCC30215, N. fowleri Nf69 trophozoites, 48 h culture, 37° C., CellTiter Glo luminescence, read-out: EC50 uM against N. fowleri. The format is cell-based. A digest of the protocol:
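Axenic Nf69 trophozoites in Nelson's complete medium with 10% FBS exposed to compound, initially 20–0.375 μM, for 48 h at 37 °C, 5% CO2. Viability read by CellTiter-Glo luminescence; % growth inhibition versus controls, triplicate averages fitted for EC50, with lower ranges used for very potent compounds.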
(ATP-based viability assays read luminescence as a measure of living cells.)

Consider `COc1cc2nc3n(c(=O)c2cc1Cl)CC[C@@H]1[C@@H]3CCCN1Cc1cccnc1` (racemic) [trans-7ii, (±)-(4aR,13bS)-10-chloro-11-methoxy-4-(pyridin-3-ylmethyl)-1,2,3,4,4a,5,6,13b-octahydro-8H-[1,6]naphthyridino[5,6-b]quinazolin-8-one], for which the half-maximal effective concentration (EC50) was in the range of 0.1 to 1 µM. Turning to `O=c1c2cc(Cl)c(Cl)cc2nc2n1CC[C@@H]1[C@@H]2CCCN1CCO` (racemic) [trans-7j, (±)-(4aR,13bS)-10,11-dichloro-4-(2-hydroxyethyl)-1,2,3,4,4a,5,6,13b-octahydro-8H-[1,6]naphthyridino[5,6-b]quinazolin-8-one], the concentration for a half-maximal effect (EC50) lay in the range of 0.0001 to 0.1 µM. For `COc1cc2nc3n(c(=O)c2cc1C#N)CC[C@@H]1[C@@H]3CCCN1C` (racemic) [trans-7jj, (±)-(4aR,13bS)-11-methoxy-4-methyl-8-oxo-2,3,4,4a,5,6,8,13b-octahydro-1H-[1,6]naphthyridino[5,6-b]quinazoline-10-carbonitrile], the EC50 lay in the range of 1 to 10 µM. For `O=c1c2cc(Cl)c(Cl)cc2nc2n1CC[C@@H]1[C@@H]2CCCN1Cc1ccncc1` (racemic) [trans-7k, (±)-(4aR,13bS)-10,11-dichloro-4-(pyridin-4-ylmethyl)-1,2,3,4,4a,5,6,13b-octahydro-8H-[1,6]naphthyridino[5,6-b]quinazolin-8-one] the value was 0.1 to 1 µM; for `COc1cc2nc3n(c(=O)c2cc1C#N)CC[C@@H]1[C@@H]3CCCN1CC1COC1` (racemic) [trans-7kk, (±)-(4aR,13bS)-11-methoxy-4-(oxetan-3-ylmethyl)-8-oxo-2,3,4,4a,5,6,8,13b-octahydro-1H-[1,6]naphthyridino[5,6-b]quinazoline-10-carbonitrile], 0.1 to 1 µM; for `CC(C)CN1CCC[C@@H]2c3nc4cc(Cl)c(Cl)cc4c(=O)n3CC[C@H]21` (racemic) [trans-7l, (±)-(4aR,13bS)-10,11-dichloro-4-isobutyl-1,2,3,4,4a,5,6,13b-octahydro-8H-[1,6]naphthyridino[5,6-b]quinazolin-8-one], 0.0001 to 0.1 µM. With `O=c1c2cc(Cl)c(Cl)cc2nc2n1CC[C@@H]1[C@@H]2CCCN1CC1COC1` (racemic) [trans-7m, (±)-(4aR,13bS)-10,11-dichloro-4-(oxetan-3-ylmethyl)-1,2,3,4,4a,5,6,13b-octahydro-8H-[1,6]naphthyridino[5,6-b]quinazolin-8-one], the EC50 fell in the range of 0.0001 to 0.1 µM. For `COc1cc2nc3n(c(=O)c2cc1Cl)CC[C@@H]1[C@@H]3CCCN1CCN1CCOCC1` (racemic) [trans-7mm, (±)-(4aR,13bS)-10-chloro-11-methoxy-4-(2-morpholinoethyl)-1,2,3,4,4a,5,6,13b-octahydro-8H-[1,6]naphthyridino[5,6-b]quinazolin-8-one] the value was 0.1 to 1 µM; for `COc1cc(CN2CCC[C@@H]3c4nc5cc(Cl)c(Cl)cc5c(=O)n4CC[C@H]32)cc(OC)c1` (racemic) [trans-7n, (±)-(4aR,13bS)-10,11-dichloro-4-(3,5-dimethoxybenzyl)-1,2,3,4,4a,5,6,13b-octahydro-8H-[1,6]naphthyridino[5,6-b]quinazolin-8-one], 0.0001 to 0.1 µM.

With `COc1cc2nc3n(c(=O)c2cc1Cl)CC[C@@H]1[C@@H]3CCCN1CCN1CCCC1` (racemic) [trans-7nn, (±)-(4aR,13bS)-10-chloro-11-methoxy-4-(2-(pyrrolidin-1-yl)ethyl)-1,2,3,4,4a,5,6,13b-octahydro-8H-[1,6]naphthyridino[5,6-b]quinazolin-8-one], the half-maximal effective concentration (EC50) lay within 0.1 to 1 µM. Consider `O=c1c2cc(Cl)c(Cl)cc2nc2n1CC[C@@H]1[C@@H]2CCCN1Cc1ccccn1` (racemic) [trans-7o, (±)-(4aR,13bS)-10,11-dichloro-4-(pyridin-2-ylmethyl)-1,2,3,4,4a,5,6,13b-octahydro-8H-[1,6]naphthyridino[5,6-b]quinazolin-8-one], for which the concentration for a half-maximal effect (EC50) was in the range of 1 to 10 µM.
